Reference: patent US20260133203A1, “DETECTION OF FUMARATE-DERIVED MODIFICATION IN A TEST SAMPLE” (UNIVERSITY OF SOUTH CAROLINA, priority 2017, published 2026)
Structures can show the parent of a compound that is named as a salt.

How the values were obtained:
heme oxygenase 1 (HO-1) = assay: Western blot of HO-1 expression after DMF treatment; format: cell-based
Experimental: N1E-115 cells (subclone N1E-115-1 neuroblastoma cells) were obtained from Sigma (08062511, St. Louis, MO). The cells were grown and expanded in non-differentiation medium (NDM): 90% DMEM (Gibco™, Grand Island, NY) with 25 mM glucose, no pyruvate, 25 mM HEPES, 4 mM glutamine and 10% fetal bovine serum (FBS, Atlanta Biologicals, Atlanta, GA). At 80% confluence, the cells were differentiated into neurons in the presence of 2% FBS and 1.25% dimethyl sulfoxide in DMEM for 5 days. In addition to the assessment of the neuronal phenotype by light microscopy, the detection of synaptophysin protein levels was used to confirm successful differentiation. During the final 6 or 24 hours of differentiation, the cells were treated with 10-100 µM DMF and harvested as described above for primary neurons, with the addition of phosphatase inhibitors to the DPBS washes and the RIPA buffer used for scraping to prevent dephosphorylation of CRMP-2. […] To ensure that the succinated proteins detected were solely of neuronal origin, N1E-115 neuroblastoma cells were differentiated to a neuronal phenotype (confirmed by increased synaptophysin content) and treated with DMF for 24 hours. […]

primary rat astrocytes = assay: LC-MS/MS identification of succinated proteins in primary rat astrocytes; format: cell-based; details: 24 hours treatment with up to 100 μM DMF
Experimental: Primary astrocytes were isolated and cultured from neonatal P1-P2 Sprague-Dawley rats. Animals were decapitated following which cortices, brainstem, and hippocampi were aseptically dissected in petri dishes filled with ice-cold Hanks' Balanced Salt Solution (Corning® HBSS; Sigma, St. Louis, MO), HEPES (10 mM; Sigma), and gentamicin sulfate (5 μg/mL; Life Technologies, Carlsbad, CA). The dissected tissue was cut into pieces and dissociated by trypsin treatment (10 μl/mL; Life Technologies, Carlsbad, CA), followed by trituration with sterile glass pipettes. Cells were plated in 24-well plates pre-coated with poly-l-lysine (50 μg/mL; Sigma). Cultures were maintained in DMEM/F12 (Life Technologies) medium supplemented with 10% fetal bovine serum (FBS) and stored in an incubator at 37° C. ([…]). […] After gel extraction, the peptides were re-suspended in 1% acetic acid and analyzed on a DionexTM […] system (Thermo ScientificTM, Rockford, IL) coupled to an Orbitrap Velos ProTM mass spectrometer (Thermo ScientificTM, Rockford, IL). […] The data-dependent acquisition (DDA) data were analyzed using Proteome DiscovererTM 1.4 software with SEQUEST search engine against the uniprot_ref_mouse database (2014-10-03 version, 52,474 proteins) or uniprot_ref_rat database (2011-5-11 version, 39765 proteins) with Xcorr>1 validation (+2) and an allowance for 2 missed cleavages. […]

## COC(=O)/C=C/C(=O)OC [DMF, dimethyl fumarate]
Heme oxygenase 1 (HO-1)
  HO-1 expression: significantly induced HO-1 expression
Primary rat astrocytes
  number of succinated protein subunits detected: 11
